In brackets after ≈: the same amount, converted by molar mass.
Tests used:
Enterococcus faecalis [1] = assay: Antibacterial activity against Enterococcus faecalis ATCC 29212; type: functional
[2] = target: T1, Phospho-N-acetylmuramoyl-pentapeptide-transferase (Staphylococcus aureus, UniProt P0C1R8); assay: Inhibition of MraY in Staphylococcus aureus
T1 sequence (P0C1R8 whole entry): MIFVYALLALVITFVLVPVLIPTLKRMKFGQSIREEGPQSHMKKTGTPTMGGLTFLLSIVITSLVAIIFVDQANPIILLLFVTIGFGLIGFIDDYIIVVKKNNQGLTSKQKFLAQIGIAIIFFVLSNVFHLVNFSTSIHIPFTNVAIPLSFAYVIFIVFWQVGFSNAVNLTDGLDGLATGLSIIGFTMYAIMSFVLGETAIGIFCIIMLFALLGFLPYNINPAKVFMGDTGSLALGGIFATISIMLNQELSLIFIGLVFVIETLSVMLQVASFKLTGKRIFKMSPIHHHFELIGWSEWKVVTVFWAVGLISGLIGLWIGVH

Enterococcus faecium [3] = assay: Antibacterial activity against Enterococcus faecium ATCC 19434; type: functional
Staphylococcus aureus [4] = assay: Antibacterial activity against methicillin susceptible Staphylococcus aureus ATCC 29213; type: functional
Staphylococcus aureus [5] = assay: Antibacterial activity against methicillin resistant Staphylococcus aureus SR3637; type: functional
Enterococcus faecium [6] = assay: Antibacterial activity against Enterococcus faecium SR7917 (VRE); type: functional
Enterococcus faecalis [7] = assay: Antibacterial activity against Enterococcus faecalis SR7914 (VRE); type: functional
Escherichia coli [8] = assay: Antibacterial activity against Escherichia coli ATCC 8730; type: functional
Pseudomonas aeruginosa [9] = assay: Antibacterial activity against Pseudomonas aeruginosa ATCC 27853; type: functional
Staphylococcus aureus [10] = assay: Antibacterial activity against methicillin resistant Staphylococcus aureus ATCC 43300; type: functional
Staphylococcus aureus [11] = assay: Antibacterial activity against Staphylococcus aureus ATCC 25923; type: functional
Citrobacter freundii = assay: Antibacterial activity against Citrobacter freundii ATCC 8090; type: functional
[12] = target: T2, Phospho-N-acetylmuramoyl-pentapeptide-transferase (Aquifex aeolicus (strain VF5), UniProt O66465); assay: Inhibition of MraY in Aquifex aeolicus
T2 sequence (O66465 whole entry): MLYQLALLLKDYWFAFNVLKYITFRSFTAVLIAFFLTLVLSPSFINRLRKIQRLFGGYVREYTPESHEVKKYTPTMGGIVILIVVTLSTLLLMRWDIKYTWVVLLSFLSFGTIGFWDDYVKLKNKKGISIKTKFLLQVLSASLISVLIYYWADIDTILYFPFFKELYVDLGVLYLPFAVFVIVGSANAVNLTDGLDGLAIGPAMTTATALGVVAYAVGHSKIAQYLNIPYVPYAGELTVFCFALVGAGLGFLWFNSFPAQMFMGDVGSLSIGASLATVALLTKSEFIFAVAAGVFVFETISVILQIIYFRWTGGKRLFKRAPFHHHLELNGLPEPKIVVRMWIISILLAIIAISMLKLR

Haemophilus influenzae = assay: Antibacterial activity against Haemophilus influenzae ATCC 10211; type: functional
Escherichia coli [13] = assay: Antibacterial activity against Escherichia coli ATCC 25922; type: functional
Acinetobacter baumannii = assay: Antibacterial activity against Acinetobacter baumannii ATCC 19606; type: functional; conditions: ATCC 19606 = CIP 70.34 = JCM 6841
Streptococcus pneumoniae = assay: Antibacterial activity against Streptococcus pneumoniae; type: functional
Pseudomonas aeruginosa [14] = assay: Antibacterial activity against Pseudomonas aeruginosa YY165; type: functional
Pseudomonas aeruginosa [15] = assay: Antibacterial activity against Pseudomonas aeruginosa PAO1 deltamexB; type: functional
[16] = target: T3, Phospho-N-acetylmuramoyl-pentapeptide-transferase (Bacillus subtilis (strain 168), UniProt Q03521); assay: Inhibition of MraY in Bacillus subtilis
T3 sequence (Q03521 whole entry): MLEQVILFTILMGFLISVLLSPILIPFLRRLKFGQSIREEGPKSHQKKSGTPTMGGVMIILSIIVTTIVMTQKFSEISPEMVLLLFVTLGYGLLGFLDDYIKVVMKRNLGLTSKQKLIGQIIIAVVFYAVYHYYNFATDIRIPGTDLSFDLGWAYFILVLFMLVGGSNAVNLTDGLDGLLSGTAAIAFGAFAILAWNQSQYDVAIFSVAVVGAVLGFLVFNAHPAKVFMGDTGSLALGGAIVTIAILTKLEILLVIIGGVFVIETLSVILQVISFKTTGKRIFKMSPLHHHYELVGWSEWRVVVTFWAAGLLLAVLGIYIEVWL

Enterococcus faecalis [17] = assay: Antibacterial activity against t Enterococcus faecalis VRE after 20 hrs by NCCLS-based two-fold broth dilution method; type: functional; conditions: read-out: MIC
Enterococcus faecalis [18] = assay: Antibacterial activity against t Enterococcus faecalis after 20 hrs by NCCLS-based two-fold broth dilution method; type: functional; conditions: read-out: MIC

Row | Structure (SMILES) | MIC (Enterococcus faecalis [1]) [µg/mL] | MIC (Enterococcus faecium [3]) [µg/mL] | MIC (Enterococcus faecalis [7]) [µg/mL] | MIC (Escherichia coli [8]) [µg/mL] | MIC (Pseudomonas aeruginosa [9]) [µg/mL] | MIC (Staphylococcus aureus [10]) [µg/mL] | MIC (Staphylococcus aureus [11]) [µg/mL] | MIC (Citrobacter freundii) [µg/mL] | IC50 [12] [µM] | further results
1 | CCCCCCCCCCCCCCCCC[C@H]1CN(C)[C@@H]([C@H](O[C@@H]2O[C@H](CN)[C@@H](O)[C@H]2O)[C@H]2O[C@@H](n3ccc(=O)[nH]c3=O)[C@H](O)[C@@H]2O)C(=O)N(C)[C@@H]1C(=O)O | 4 (≈ 5.01 µM) | 8 (≈ 10 µM) | 8 (≈ 10 µM) | – | – | – | – | – | – | IC50 [2]: 6.9 µM; MIC (Staphylococcus aureus [4]): 8 µg/mL (≈ 10 µM); MIC (Staphylococcus aureus [5]): 8 µg/mL (≈ 10 µM); MIC (Enterococcus faecium [6]): 8 µg/mL (≈ 10 µM)
2 | NC[C@H]1O[C@@H](O[C@@H](Cc2cn(Cc3ccc(COc4ccc(C(=O)c5ccccc5)cc4)cc3)nn2)[C@H]2O[C@@H](n3ccc(=O)[nH]c3=O)[C@H](O)[C@@H]2O)[C@H](O)[C@@H]1O | – | > 128 | – | > 128 | > 128 | 32 (≈ 42.3 µM) | 64 (≈ 84.6 µM) | > 128 | 20 | –
3 | CCCCCCCCCCc1cn(C[C@H](O[C@@H]2O[C@H](CN)[C@@H](O)[C@H]2O)[C@H]2O[C@@H](n3ccc(=O)[nH]c3=O)[C@H](O)[C@@H]2O)nn1 | – | > 128 | – | > 128 | 128 (≈ 215 µM) | 64 (≈ 107 µM) | 16 (≈ 26.8 µM) | > 128 | 35 | –
4 | CC(=O)N[C@H]1CCN[C@H]([C@H](O[C@@H]2O[C@H](CN)[C@@H](O)[C@H]2O)[C@H]2O[C@@H](n3ccc(=O)[nH]c3=O)[C@H](O)[C@@H]2O)C1 | > 64 | > 64 | > 64 | – | – | – | – | – | – | MIC (Haemophilus influenzae): > 64 µg/mL; MIC (Escherichia coli [13]): > 64 µg/mL; MIC (Acinetobacter baumannii): > 64 µg/mL; IC50 [2]: 4000 µM; MIC (Staphylococcus aureus [4]): > 64 µg/mL; MIC (Staphylococcus aureus [5]): > 64 µg/mL; MIC (Streptococcus pneumoniae): > 64 µg/mL; MIC (Pseudomonas aeruginosa [14]): > 64 µg/mL; MIC (Pseudomonas aeruginosa [15]): > 64 µg/mL; MIC (Enterococcus faecium [6]): > 64 µg/mL
5 | NC[C@H]1O[C@@H](O[C@@H](c2cn(Cc3ccc(COc4ccc(C(=O)c5ccccc5)cc4)cc3)nn2)[C@H]2O[C@@H](n3ccc(=O)[nH]c3=O)[C@H](O)[C@@H]2O)[C@H](O)[C@@H]1O | – | > 128 | – | > 128 | > 128 | 32 (≈ 43.1 µM) | > 128 | > 128 | 75 | IC50 [16]: 50 µM
6 | CC(=O)N[C@@H]1CCN[C@H]([C@H](O[C@@H]2O[C@H](CN)[C@@H](O)[C@H]2O)[C@H]2O[C@@H](n3ccc(=O)[nH]c3=O)[C@H](O)[C@@H]2O)C1 | > 64 | > 64 | > 64 | – | – | – | – | – | – | MIC (Haemophilus influenzae): > 64 µg/mL; MIC (Escherichia coli [13]): > 64 µg/mL; MIC (Acinetobacter baumannii): > 64 µg/mL; IC50 [2]: 2600 µM; MIC (Staphylococcus aureus [4]): > 64 µg/mL; MIC (Staphylococcus aureus [5]): > 64 µg/mL; MIC (Streptococcus pneumoniae): > 64 µg/mL; MIC (Pseudomonas aeruginosa [14]): > 64 µg/mL; MIC (Pseudomonas aeruginosa [15]): > 64 µg/mL; MIC (Enterococcus faecium [6]): > 64 µg/mL
7 | CCCCCCCCCCn1cc(C[C@H](O[C@@H]2O[C@H](CN)[C@@H](O)[C@H]2O)[C@H]2O[C@@H](n3ccc(=O)[nH]c3=O)[C@H](O)[C@@H]2O)nn1 | – | > 128 | – | > 128 | > 128 | 64 (≈ 107 µM) | 128 (≈ 215 µM) | > 128 | 15 | –
8 | NC[C@H]1O[C@@H](O[C@@H](Cn2cc(CCCCCCCCCCc3ccccc3)nn2)[C@H]2O[C@@H](n3ccc(=O)[nH]c3=O)[C@H](O)[C@@H]2O)[C@H](O)[C@@H]1O | – | 32 (≈ 47.6 µM) | – | > 128 | 64 (≈ 95.1 µM) | 16 (≈ 23.8 µM) | 64 (≈ 95.1 µM) | > 128 | 30 | –
9 | NC[C@H]1O[C@@H](O[C@@H](Cc2cn(CCCCCCCCCCc3ccccc3)nn2)[C@H]2O[C@@H](n3ccc(=O)[nH]c3=O)[C@H](O)[C@@H]2O)[C@H](O)[C@@H]1O | – | 64 (≈ 95.1 µM) | – | > 128 | > 128 | 16 (≈ 23.8 µM) | 32 (≈ 47.6 µM) | > 128 | 20 | –
10 | CCCCCCCCCCCC(=O)N[C@@H]1CCN[C@@H]([C@H](O[C@@H]2O[C@H](CN)[C@@H](O)[C@H]2O)[C@H]2O[C@@H](n3ccc(=O)[nH]c3=O)[C@H](O)[C@@H]2O)C1 | 4 (≈ 6.1 µM) | – | 4 (≈ 6.1 µM) | – | – | – | – | – | – | MIC (Enterococcus faecalis [17]): 4 µg/mL (≈ 6.1 µM); MIC (Enterococcus faecalis [18]): 4 µg/mL (≈ 6.1 µM)
11 | CCCCCCCCCCCCCCCC(=O)OC[C@@H]1[C@H](C(=O)N(C)C)[C@@H]([C@H]2O[C@@H](n3ccc(=O)[nH]c3=O)[C@H](O)[C@@H]2O)ON1CCCN | 16 (≈ 23.5 µM) | – | 4 (≈ 5.87 µM) | – | – | – | – | – | – | MIC (Haemophilus influenzae): 0.5 µg/mL (≈ 0.733 µM)
12 | CCCCCCCCCCCCCCCC(=O)OC[C@@H]1[C@H](C(N)=O)[C@@H]([C@H]2O[C@@H](n3ccc(=O)[nH]c3=O)[C@H](O)[C@@H]2O)ON1CCCN | 16 (≈ 24.5 µM) | – | 8 (≈ 12.2 µM) | – | – | – | – | – | – | MIC (Haemophilus influenzae): 0.25 µg/mL (≈ 0.382 µM)
13 | NC[C@H]1O[C@@H](O[C@@H](c2cn(CCCCCOc3ccc(C(=O)c4ccccc4)cc3)nn2)[C@H]2O[C@@H](n3ccc(=O)[nH]c3=O)[C@H](O)[C@@H]2O)[C@H](O)[C@@H]1O | – | > 128 | – | > 128 | > 128 | 64 (≈ 90.3 µM) | > 128 | > 128 | – | IC50 [16]: 100 µM
14 | CCCCCCCCCCCCCCCCC[C@H]1CN[C@@H]([C@H](O[C@@H]2O[C@H](CN)[C@@H](O)[C@H]2O)[C@H]2O[C@@H](n3ccc(=O)[nH]c3=O)[C@H](O)[C@@H]2O)C(=O)N(C)[C@@H]1C(=O)O | 8 (≈ 10.2 µM) | 8 (≈ 10.2 µM) | 16 (≈ 20.4 µM) | – | – | – | – | – | – | IC50 [2]: 3.8 µM; MIC (Staphylococcus aureus [4]): 8 µg/mL (≈ 10.2 µM); MIC (Staphylococcus aureus [5]): 8 µg/mL (≈ 10.2 µM); MIC (Enterococcus faecium [6]): 16 µg/mL (≈ 20.4 µM)
15 | NC[C@H]1O[C@@H](O[C@@H](Cn2cc(CCCCCCCCCCOc3ccc(C(=O)c4ccccc4)cc3)nn2)[C@H]2O[C@@H](n3ccc(=O)[nH]c3=O)[C@H](O)[C@@H]2O)[C@H](O)[C@@H]1O | – | 128 (≈ 161 µM) | – | > 128 | > 128 | 8 (≈ 10.1 µM) | 16 (≈ 20.2 µM) | > 128 | 25 | –

— ChEMBL document CHEMBL4402510, “Caprazamycins: Promising lead structures acting on a novel antibacterial target MraY” (Eur J Med Chem, 2019)
